What was measured:
P388/A cells = test: Growth inhibition of adriamycin-resistant P388/A cells; type: cell-based; settings: Mus musculus, read-out: 50% inhibitory concentration (IC50) on growth of P388/A cells
Experimental: (§1) In vitro activity tests were performed for evaluating the inhibitory activities of the antitumor substance BE-13793C on mouse tumor cells. In the in vitro antitumor assay using P388 tumor cells, the test substance was first dissolved in dimethyl sulfoxide and the obtained solution was serially diluted with a cell culture medium containing 20% of dimethyl sulfoxide (20% v/v DMSO-RPMI-1640 medium). Then, 2 μl of the dilution was added to 200 μl of a cell culture medium (10% v/v fetal calf serum-RPMI-1640 medium) containing 2×10^4 or 3×10^4 tumor cells. Next, each mixture was incubated at 37° C. under 5% CO2 for 72 hours. The viable cells were then counted with a Coulter counter. The result was compared with the control data. […] The concentration (IC50) of the antitumor substance BE-13793C causing 50% inhibition on P388/S tumor cell growth was 0.7 μM, while that on P388/V cell growth was 0.7 μM.
Furthermore, the antitumor substance BE-13793C inhibited the growth of P388/A cells, which had acquired resistance to the anticancer agent adriamycin, and the 50% inhibitory concentration (IC50) thereof was 1.0 μM.

P388/S tumor cells = test: In vitro antitumor assay, growth inhibition of P388/S tumor cells (72 h, Coulter counter); type: cell-based; settings: Mus musculus, 37° C., 5% CO2, 72 hours, read-out: concentration (IC50) causing 50% inhibition on P388/S tumor cell growth
Experimental: as §1
(§2) The P388/S cells are commonly employed mouse leukemia cells while the P388/V cells are a strain of P388 leukemia cells which have acquired resistance to the anticancer agent vincristine.

[1] = Acidity/neutrality/basicity; type: physicochemical
Solubility = type: physicochemical
Ehrlich ascites cancer = test: Effect on Ehrlich ascites cancer transplanted in mice (survival); type: in vivo, mouse; settings: once a day 1st to 10th day; for MST (mean survival time): female ICR mice, control 13.1 day; for MST % T/C ((treated MST/control MST) × 100): ≥125 = marked antitumor effect
Text: In this assay, 10^6 (lethal dose) tumor cells per mouse were intraperitoneally administered. Then the test substance was serially diluted and intraperitoneally administered.
^1 Inoculum: 10^6 Ehrich ascites cancer cells, intraperitoneal.
^2 Host: Female ICR mice.
^3 Treatment schedule: BE13793C was intraperitoneally administered
once a day from the 1st to the 10th day.
^4 MST: Mean survival time (in days).
^5 % T/C: (Treated MST/control MST) × 100.
^6 Criteria: When % T/C ≥ 125, the test compound was considere
to produce a marked antitumor effect at the particular dose.

female ICR mice = test: Acute toxicity on female ICR mice; type: in vivo, mouse; settings: 100 mg/kg i.p. once, on the 5th day
P388/V cells = test: In vitro antitumor assay, growth inhibition of vincristine-resistant P388/V cells; type: cell-based; settings: Mus musculus, 37° C., 5% CO2, 72 hours, read-out: concentration (IC50) causing 50% inhibition on P388/V cell growth
Experimental: as §1, §2

O=C1NC(=O)c2c1c1c3cccc(O)c3[nH]c1c1[nH]c3c(O)cccc3c21 [BE-13793C]
IC50 (P388/A cells): 1 µM | IC50 (P388/S tumor cells): 0.7 µM | Acidity/neutrality/basicity [1]: acidic | solubility in dimethyl sulfoxide (Solubility; dimethyl sulfoxide): highly soluble | solubility in methanol (Solubility; methanol): soluble | solubility in tetrahydrofuran (Solubility; tetrahydrofuran): highly soluble | solubility in water (Solubility; water): hardly soluble | MST (mean survival time) (Ehrlich ascites cancer; 8 mg/kg/injection i.p.): 16.0 days | MST % T/C ((treated MST/control MST) × 100) (Ehrlich ascites cancer; 8 mg/kg/injection i.p.): 122% | MST (mean survival time) (Ehrlich ascites cancer; 20 mg/kg/injection i.p.): 26.4 days | MST % T/C ((treated MST/control MST) × 100) (Ehrlich ascites cancer; 20 mg/kg/injection i.p.): 202% | MST (mean survival time) (Ehrlich ascites cancer; 50 mg/kg/injection i.p.): 28.6 days | MST % T/C ((treated MST/control MST) × 100) (Ehrlich ascites cancer; 50 mg/kg/injection i.p.): 218% | death (acute toxicity) (female ICR mice): no death was found | IC50 (P388/V cells): 0.7 µM

— patent US5290698A, “Streptoverticillium ferm P-10489 which produces antitumor agent BE-13793C” (Banyu Pharmaceutical Co., Ltd., priority 1989, dated 1994)
